# Assay results as given in publication PMC6182381, “Population Pharmacokinetics and Exposure-Response Relationships of Naldemedine” (Pharmaceutical Research, 2018).
# Like-named read-outs stand apart in the source and are kept apart here.
# What was measured:
# [1] = Population PK analysis of plasma naldemedine concentrations (NONMEM, 2-compartment model); format: in vivo, human; settings: for AUC: human, plasma, oral
# Experimental: A population PK model was developed with pooled naldemedine concentrations from healthy subjects, patients with chronic non-cancer pain and OIC, and cancer patients with OIC as described in Table I. Blood sampling times for PK analysis in each study are shown in Supplemental Table S1. All studies were performed in accordance with the Declaration of Helsinki, the International Conference on Harmonization (ICH) E6 Guidance for Good Clinical Practice and all other applicable regulatory requirements. Study protocols were approved by the responsible institutional review boards. Written informed consent for each clinical study was obtained from all subjects.
# Background data available for subjects were summarized and used as candidate covariates: age, body weight, body mass index (BMI), albumin (ALBU), aspartate aminotransferase (AST) and alanine aminotransferase (ALT), total bilirubin (Tbil), and creatinine clearance (CLcr) at baseline as continuous data, and gender (male, female), race/ethnicity (“White” or “non-White”, “Japanese” or “non-Japanese”, “Hispanic or Latino” or “non-Hispanic or non-Latino”), health status (healthy subjects/ Patients with chronic non-cancer pain and OIC/ Cancer patients with OIC), dosing conditions (dosing in the fasted/fed state, with/without concomitant use of P-gp/CYP3A inhibitor/inducer), and formulation (“solution or suspension”, “phase 1 or 2 tablet”, “phase 3 tablet”) as categorical data. Background data at baseline were obtained from observations prior to or on the first day of dosing, or at screening if this value was not available. Categorical age (<65 years or ≥ 65 years) was also used. CLcr was calculated using the Cockcroft-Gault eq. ([12]). Data from the concomitant treatment period in the phase 1 DDI studies [1202 V9218, 1403V921D, and 1502V921E]), in which co-administrations of P-gp/CYP3A inhibitor/inducer (cyclosporine, rifampin, itraconazole, or fluconazole) with naldemedine were designed as the worst case scenario for each inhibitor/inducer (single dose of cyclosporine 600 mg, rifampin 600 mg for 17 days, itraconazole 200 mg for 7 days, fluconazole 200 mg for 7 days), were excluded from the population PK analysis because they were not clinically relevant to the OIC treatment. Food condition was assumed as fasted in phase 2b studies (1107 V9221 and 1108 V9222), in which the date/time of food intake had not been recorded. Food condition was defined as fasted in cases where naldemedine was administered more than 1 h after the food intake in phase 3 studies (1314 V9231, 1315 V9232, 1331 V9236, 1336 V9238, and 1339 V9239).
# The bioanalytical methods for determination of concentrations of naldemedine and its metabolites in human plasma were validated with the lower limit of quantification (LLOQ) being 0.01 ng/ml for naldemedine ([11]). Plasma samples were analyzed after solid phase extraction by a liquid chromatography/mass spectrometry/mass spectrometry (LC/MS/MS) method using the positive ion mode and multiple reaction monitoring. All the analytical methods were validated across the calibration range with respect to selectivity, recovery, accuracy, precision, and stability under a variety of conditions.
# The population PK analysis was performed by using the non-linear mixed effect modeling software NONMEM (version 7.3, ICON Development Solutions, US), with PREDPP library and NM-TRAN preprocessor ([13]). To support analyses by NONMEM, Perl-speaks-NONMEM (PsN) (version 4.2) and Xpose (version 4.2.1) were used ([14]). The first order conditional estimation with interaction (FOCE-I) method was used for the analysis.
# The PK profiles of naldemedine were examined using conventional compartment disposition models with first order absorption based on the PK in healthy volunteers ([11]). To determine the basic structural PK model for naldemedine, 1-, 2- and 3-compartment models with first order absorption were tested. […]
# [2] = test system: patients with chronic non-cancer pain and OIC; design: method as in PMID 28371937; settings: Phase 2b, cited from earlier work
# [3] = 1314V9231_1315V9232 (Phase 3), 0.2 mg
# [4] = final model, bootstrap estimates
smiles,measurement,setting,value
CC(C)(NC(=O)C1=C(O)[C@@H]2Oc3c(O)ccc4c3[C@@]23CCN(CC2CC2)[C@H](C4)[C@]3(O)C1)c1nc(-c2ccccc2)no1 [naldemedine],"Empirical Bayesian-estimated AUCss, Max","[1]; 1107V9221 (Phase 2b), 0.1 mg",13.49 ng·h/mL
same,"Empirical Bayesian-estimated AUCss, Min","[1]; 1107V9221 (Phase 2b), 0.1 mg",7.02 ng·h/mL
same,"Empirical Bayesian-estimated AUCss, Max","[1]; 1107V9221 (Phase 2b), 0.2 mg",51.36 ng·h/mL
same,"Empirical Bayesian-estimated AUCss, Min","[1]; 1107V9221 (Phase 2b), 0.2 mg",12.66 ng·h/mL
same,"Empirical Bayesian-estimated AUCss, Max","[1]; 1107V9221 (Phase 2b), 0.4 mg",74.93 ng·h/mL
same,"Empirical Bayesian-estimated AUCss, Min","[1]; 1107V9221 (Phase 2b), 0.4 mg",25.78 ng·h/mL
same,"Empirical Bayesian-estimated AUCss, Max",[1]; [3],92.1 ng·h/mL
same,"Empirical Bayesian-estimated AUCss, Min",[1]; [3],5.669 ng·h/mL
same,"Empirical Bayesian-estimated CL/F, Mean","[1]; 1314V9231_1315V9232, Age 65 -< 75",7.63 L/h
same,"Empirical Bayesian-estimated CL/F, Mean","[1]; 1314V9231_1315V9232, Age < 65",8.89 L/h
same,"Empirical Bayesian-estimated CL/F, Mean","[1]; 1314V9231_1315V9232, Age >= 65",7.61 L/h
same,"Empirical Bayesian-estimated CL/F, Mean","[1]; 1314V9231_1315V9232, Age >= 75",7.54 L/h
same,"Empirical Bayesian-estimated CL/F, Mean","[1]; 1314V9231_1315V9232, Asian",13.1 L/h
same,"Empirical Bayesian-estimated CL/F, Mean","[1]; 1314V9231_1315V9232, Black",7.51 L/h
same,"Empirical Bayesian-estimated CL/F, Mean","[1]; 1314V9231_1315V9232, Female",8.48 L/h
same,"Empirical Bayesian-estimated CL/F, Mean","[1]; 1314V9231_1315V9232, Male",9.08 L/h
same,"Empirical Bayesian-estimated CL/F, Mean","[1]; 1314V9231_1315V9232, OIC non-Cancer",8.73 L/h
same,"Empirical Bayesian-estimated CL/F, Mean","[1]; 1314V9231_1315V9232, White",9.00 L/h
same,"Empirical Bayesian-estimated CL/F, Mean","[1]; 1314V9231_1315V9232, non-White",7.59 L/h
same,"Empirical Bayesian-estimated CL/F, Mean","[1]; 1314V9231_1315V9232, race Others",6.36 L/h
same,"Empirical Bayesian-estimated CL/F, Mean","[1]; 1331V9236 (cancer patients), Age 65 -< 75",7.15 L/h
same,"Empirical Bayesian-estimated CL/F, Mean","[1]; 1331V9236 (cancer patients), Age < 65",7.51 L/h
same,"Empirical Bayesian-estimated CL/F, Mean","[1]; 1331V9236 (cancer patients), Age >= 65",7.15 L/h
same,"Empirical Bayesian-estimated CL/F, Mean","[1]; 1331V9236 (cancer patients), Age >= 75",7.16 L/h
same,"Empirical Bayesian-estimated CL/F, Mean","[1]; 1331V9236 (cancer patients), Asian",7.34 L/h
same,"Empirical Bayesian-estimated CL/F, Mean","[1]; 1331V9236 (cancer patients), Female",6.54 L/h
same,"Empirical Bayesian-estimated CL/F, Mean","[1]; 1331V9236 (cancer patients), Male",7.85 L/h
same,"Empirical Bayesian-estimated CL/F, Mean","[1]; 1331V9236 (cancer patients), non-White",7.34 L/h
same,"Empirical Bayesian-estimated CL/F, Mean","[1]; 1331V9236, OIC Cancer",7.34 L/h
same,ALAG,[1]; base model,0.195 h
same,CL/F,[1]; base model,8.20 L/h
same,Inter-individual variability of CL/F,[1]; base model,40.5 CV%
same,Inter-individual variability of Ka,[1]; base model,168.2 CV%
same,Inter-individual variability of Q/F,[1]; base model,50.5 CV%
same,Inter-individual variability of Vc/F,[1]; base model,38.5 CV%
same,Inter-individual variability of Vp/F,[1]; base model,37.7 CV%
same,"Intra-individual variability, proportional",[1]; base model,25.6 CV%
same,Ka,[1]; base model,3.81 h⁻¹
same,Q/F,[1]; base model,5.02 L/h
same,Vc/F,[1]; base model,83.6 L
same,Vp/F,[1]; base model,43.2 L
same,AUC,"[1]; both sexes, 0.2 mg, reference population, 0.2 mg once daily, read-out: typical AUCss",22 ng·h/mL
same,decrease of population predicted AUCss vs reference population,[1]; covariates at extreme values,25%
same,increase of population predicted AUCss vs reference population,[1]; covariates at extreme values,76%
same,ALAG,[1]; final model,0.195 h
same,Inter-individual variability of CL/F,[1]; final model,37.9 CV%
same,Inter-individual variability of Ka,[1]; final model,161.2 CV%
same,Inter-individual variability of Q/F,[1]; final model,46.3 CV%
same,Inter-individual variability of Vc/F,[1]; final model,25.3 CV%
same,Inter-individual variability of Vp/F,[1]; final model,36.3 CV%
same,"Intra-individual variability, proportional",[1]; final model,25.7 CV%
same,Q/F,[1]; final model,4.77 L/h
same,"THETA (7), effect of non-Cancer OIC patients on Vc/F",[1]; final model,1.20
same,"THETA (8), effect of Cancer patients with OIC on Vc/F",[1]; final model,1.27
same,"THETA (9), effect of fed condition on Vc/F",[1]; final model,1.12
same,"THETA (11), exponent of Age/52 on Ka",[1]; final model,−1.16
same,Vp/F,[1]; final model,41.8 L
same,"ALAG, bootstrap median",[1]; [4],0.196 h
same,"CL/F, THETA (1), bootstrap median",[1]; [4],9.15 L/h
same,"Inter-individual variability of CL/F, bootstrap median",[1]; [4],38.6 CV%
same,"Inter-individual variability of Ka, bootstrap median",[1]; [4],161.0 CV%
same,"Inter-individual variability of Q/F, bootstrap median",[1]; [4],47.5 CV%
same,"Inter-individual variability of Vc/F, bootstrap median",[1]; [4],25.2 CV%
same,"Inter-individual variability of Vp/F, bootstrap median",[1]; [4],36.2 CV%
same,"Intra-individual variability, proportional, bootstrap median",[1]; [4],25.5 CV%
same,"Ka, THETA (10), bootstrap median",[1]; [4],2.90 h⁻¹
same,"Q/F, bootstrap median",[1]; [4],4.73 L/h
same,"THETA (7), non-Cancer on Vc/F, bootstrap median",[1]; [4],1.19
same,"THETA (8), Cancer on Vc/F, bootstrap median",[1]; [4],1.28
same,"THETA (9), fed condition on Vc/F, bootstrap median",[1]; [4],1.12
same,"THETA (11), Age on Ka, bootstrap median",[1]; [4],−1.23
same,"Vc/F, THETA (6), bootstrap median",[1]; [4],76.0 L
same,"Vp/F, bootstrap median",[1]; [4],41.6
same,"Ka, THETA (10)","[1]; final model, age 52",2.94 h⁻¹
same,"Vc/F, THETA (6)","[1]; final model, healthy subjects, body weight 76 kg, fasted",75.9 L
same,Vc/F,"[1]; final model, reference population: 76 kg, non-cancer OIC patients, fasted",91.1 L
same,"CL/F, THETA (1)","[1]; final model, reference: 52-year-old, male, White, CLcr 108 ml/min",9.10 L/h
same,AUC,"[1]; 0.1 mg, 1107V9221 (Phase 2b), 0.1 mg, read-out: Empirical Bayesian-estimated AUCss, Geometric Mean",10.2 ng·h/mL
same,AUC,"[1]; 0.1 mg, 1107V9221 (Phase 2b), 0.1 mg, read-out: Empirical Bayesian-estimated AUCss, Mean",10.5 ng·h/mL
same,AUC,"[1]; 0.1 mg, 1107V9221 (Phase 2b), 0.1 mg, read-out: Empirical Bayesian-estimated AUCss, Median",10.4 ng·h/mL
same,AUC,"[1]; 0.2 mg, 1107V9221 (Phase 2b), 0.2 mg, read-out: Empirical Bayesian-estimated AUCss, Geometric Mean",20.3 ng·h/mL
same,AUC,"[1]; 0.2 mg, 1107V9221 (Phase 2b), 0.2 mg, read-out: Empirical Bayesian-estimated AUCss, Mean",22.1 ng·h/mL
same,AUC,"[1]; 0.2 mg, 1107V9221 (Phase 2b), 0.2 mg, read-out: Empirical Bayesian-estimated AUCss, Median",20.2 ng·h/mL
same,AUC,"[1]; 0.2 mg, 1314V9231_1315V9232 (Phase 3), 0.2 mg, read-out: Empirical Bayesian-estimated AUCss, Geometric Mean",25.1 ng·h/mL
same,AUC,"[1]; 0.2 mg, 1314V9231_1315V9232 (Phase 3), 0.2 mg, read-out: Empirical Bayesian-estimated AUCss, Mean",27.5 ng·h/mL
same,AUC,"[1]; 0.2 mg, 1314V9231_1315V9232 (Phase 3), 0.2 mg, read-out: Empirical Bayesian-estimated AUCss, Median",24.5 ng·h/mL
same,AUC,"[1]; 0.4 mg, 1107V9221 (Phase 2b), 0.4 mg, read-out: Empirical Bayesian-estimated AUCss, Geometric Mean",41.6 ng·h/mL
same,AUC,"[1]; 0.4 mg, 1107V9221 (Phase 2b), 0.4 mg, read-out: Empirical Bayesian-estimated AUCss, Mean",43.8 ng·h/mL
same,AUC,"[1]; 0.4 mg, 1107V9221 (Phase 2b), 0.4 mg, read-out: Empirical Bayesian-estimated AUCss, Median",38.2 ng·h/mL
same,Treatment-emergent adverse events,[2]; 0.1 mg,66.1%
same,Treatment-emergent adverse events,[2]; 0.2 mg,67.2%
same,Treatment-emergent adverse events,[2]; 0.4 mg,78.6%
